Laboratory results as given in PubChem BioAssay AID2060604 (Molecular Pharmacology Branch, DTP, NCI, 2025).

Tested on: 379773-124-R-J2-PDC complex spheroids, viability % test/control
Assay: Anticancer human tumor 379773-124-R-J2-PDC patient-derived endometrial carcinoma cell line growth inhibition [CLK]
Details: for IC50: curve of first compound; for viability, T/C: stronger effect = lower value; active = viability on the fitted dose curve at most 10% of control; inactive = the rest
In short: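 Multi-cell-type spheroids combined patient-derived tumor cells with HUVEC endothelial cells and human mesenchymal stem cells. Paired agents were dosed in half-log steps down from about clinical Cmax, or from 10 microM where Cmax was unknown.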

[1] = second compound 0.0316 µM, first compound 0.0316 µM
[2] = second compound 0.0316 µM, first compound 0.1 µM
[3] = second compound 0.0316 µM, first compound 0.316 µM
[4] = second compound 0.0316 µM, first compound 1 µM
[5] = second compound 0.0316 µM, first compound 3.16 µM
[6] = second compound 0.0316 µM, first compound 10 µM
[7] = second compound 0.1 µM, first compound 0.0316 µM
[8] = second compound 0.1 µM, first compound 0.1 µM
[9] = second compound 0.1 µM, first compound 0.316 µM
[10] = second compound 0.1 µM, first compound 1 µM
[11] = second compound 0.1 µM, first compound 3.16 µM
[12] = second compound 0.1 µM, first compound 10 µM
[13] = second compound 0.316 µM, first compound 0.0316 µM
[14] = second compound 0.316 µM, first compound 0.1 µM
[15] = second compound 0.316 µM, first compound 0.316 µM
[16] = second compound 0.316 µM, first compound 1 µM
[17] = second compound 0.316 µM, first compound 3.16 µM
[18] = second compound 0.316 µM, first compound 10 µM
[19] = second compound 1 µM, first compound 0.0316 µM
[20] = second compound 1 µM, first compound 0.1 µM
[21] = second compound 1 µM, first compound 0.316 µM
[22] = second compound 1 µM, first compound 1 µM
[23] = second compound 1 µM, first compound 3.16 µM
[24] = second compound 1 µM, first compound 10 µM
[25] = second compound 3.16 µM, first compound 0.0316 µM
[26] = second compound 3.16 µM, first compound 0.1 µM
[27] = second compound 3.16 µM, first compound 0.316 µM
[28] = second compound 3.16 µM, first compound 1 µM
[29] = second compound 3.16 µM, first compound 3.16 µM
[30] = second compound 3.16 µM, first compound 10 µM
[31] = second compound 10 µM, first compound 0.0316 µM
[32] = second compound 10 µM, first compound 0.1 µM
[33] = second compound 10 µM, first compound 0.316 µM
[34] = second compound 10 µM, first compound 1 µM
[35] = second compound 10 µM, first compound 3.16 µM
[36] = second compound 10 µM, first compound 10 µM
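Also: compound exposure lasted seven days before the viability readout.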
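For viability, T/C in this document: 100% = DMSO vehicle control wells.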

CC(=O)O[C@H]1C(=O)[C@@]2(C)[C@H]([C@H](OC(=O)c3ccccc3)[C@]3(O)C[C@H](OC(=O)[C@H](O)[C@@H](NC(=O)c4ccccc4)c4ccccc4)C(C)=C1C3(C)C)[C@]1(OC(C)=O)CO[C@@H]1C[C@@H]2O + CN1CCN(c2cc(C(=O)Nc3cc4cc(-c5cnn(C)c5)ccc4cn3)ccn2)CC1
active: viability, T/C [1] 7.03% | viability, T/C [2] 7.96% | viability, T/C [3] 7.37% | viability, T/C [4] 6.76% | viability, T/C [5] 6.08% | viability, T/C [6] 6.39% | viability, T/C [7] 5.82% | viability, T/C [8] 7.72% | viability, T/C [9] 7.07% | viability, T/C [10] 6.35% | viability, T/C [11] 6.66% | viability, T/C [12] 8.15% | viability, T/C [13] 5.25% | viability, T/C [14] 5.87% | viability, T/C [15] 5.15% | viability, T/C [16] 5.39% | viability, T/C [17] 7.05% | viability, T/C [18] 7.94% | viability, T/C [19] 0.07% | viability, T/C [20] 0.08% | viability, T/C [21] 0.18% | viability, T/C [22] 1.42% | viability, T/C [23] 0.21% | viability, T/C [24] 0.05% | viability, T/C [25] 0.21% | viability, T/C [26] 0.13% | viability, T/C [27] 2.68% | viability, T/C [28] 0.06% | viability, T/C [29] 0.46% | viability, T/C [30] 0.1% | viability, T/C [31] 0.05% | viability, T/C [32] 1.24% | viability, T/C [33] 0.14% | viability, T/C [34] 0.91% | viability, T/C [35] 0.48% | viability, T/C [36] 0.46%
< 31.6 nM: IC50 (second compound 0.0316 µM) | IC50 (second compound 0.1 µM) | IC50 (second compound 0.316 µM) | IC50 (second compound 1 µM) | IC50 (second compound 3.16 µM) | IC50 (second compound 10 µM)

CCc1c2c(nc3ccc(O)cc13)-c1cc3c(c(=O)n1C2)COC(=O)[C@]3(O)CC + CN1CCN(c2cc(C(=O)Nc3cc4cc(-c5cnn(C)c5)ccc4cn3)ccn2)CC1
inactive: viability, T/C (second compound 0.0316 µM, first compound 0.00316 µM) 14.1% | viability, T/C (second compound 0.1 µM, first compound 0.00316 µM) 10.7% | viability, T/C (second compound 0.316 µM, first compound 0.00316 µM) 10.6%
< 3.16 nM: IC50 (second compound 0.0316 µM) | IC50 (second compound 0.1 µM) | IC50 (second compound 0.316 µM) | IC50 (second compound 1 µM) | IC50 (second compound 3.16 µM) | IC50 (second compound 10 µM)
active: viability, T/C (second compound 0.0316 µM, first compound 0.01 µM) 8.12% | viability, T/C [1] 3.67% | viability, T/C [2] 2.7% | viability, T/C [3] 0.99% | viability, T/C [4] 0.98% | viability, T/C (second compound 0.1 µM, first compound 0.01 µM) 7.87% | viability, T/C [7] 5.68% | viability, T/C [8] 1.93% | viability, T/C [9] 1% | viability, T/C [10] 0.47% | viability, T/C (second compound 0.316 µM, first compound 0.01 µM) 9.07% | viability, T/C [13] 3.15% | viability, T/C [14] 1.65% | viability, T/C [15] 0.34% | viability, T/C [16] 0.08% | viability, T/C (second compound 1 µM, first compound 0.00316 µM) 0.11% | viability, T/C (second compound 1 µM, first compound 0.01 µM) 0.18% | viability, T/C [19] 0.1% | viability, T/C [20] 0.34% | viability, T/C [21] 0.05% | viability, T/C [22] 0.05% | viability, T/C (second compound 3.16 µM, first compound 0.00316 µM) 0.07% | viability, T/C (second compound 3.16 µM, first compound 0.01 µM) 0.08% | viability, T/C [25] 0.13% | viability, T/C [26] 0.73% | viability, T/C [27] 0.09% | viability, T/C [28] 0.08% | viability, T/C (second compound 10 µM, first compound 0.00316 µM) 0.45% | viability, T/C (second compound 10 µM, first compound 0.01 µM) 0.11% | viability, T/C [31] 0.2% | viability, T/C [32] 1.89% | viability, T/C [33] 0.75% | viability, T/C [34] 0.18%

O=c1[nH]cc(F)c(=O)[nH]1 + CN1CCN(c2cc(C(=O)Nc3cc4cc(-c5cnn(C)c5)ccc4cn3)ccn2)CC1
< 31.6 nM: IC50 (second compound 0.316 µM) | IC50 (second compound 1 µM) | IC50 (second compound 3.16 µM) | IC50 (second compound 10 µM)
active: viability, T/C [19] 0.12% | viability, T/C [20] 0.11% | viability, T/C [21] 0.1% | viability, T/C [22] 0.08% | viability, T/C [23] 1.26% | viability, T/C [24] 0.11% | viability, T/C [25] 0.39% | viability, T/C [26] 1.04% | viability, T/C [27] 0.08% | viability, T/C [28] 1.36% | viability, T/C [29] 0.05% | viability, T/C [30] 0.94% | viability, T/C [31] 1.85% | viability, T/C [32] 1.37% | viability, T/C [33] 0.12% | viability, T/C [34] 0.11% | viability, T/C [35] 0.1% | viability, T/C [36] 0.68%
> 10000 nM: IC50 (second compound 0.0316 µM) | IC50 (second compound 0.1 µM)
inactive: viability, T/C [1] 92.2% | viability, T/C [2] 86.8% | viability, T/C [3] 93.4% | viability, T/C [4] 82.3% | viability, T/C [5] 74.5% | viability, T/C [6] 56.2% | viability, T/C [7] 82% | viability, T/C [8] 82.2% | viability, T/C [9] 78.4% | viability, T/C [10] 67.4% | viability, T/C [11] 70.6% | viability, T/C [12] 54.1% | viability, T/C [13] 24.9% | viability, T/C [14] 23.4% | viability, T/C [15] 28.6% | viability, T/C [16] 22.5% | viability, T/C [17] 19.1% | viability, T/C [18] 14.8%
